Assay results published in patent US7772367B2, “C-terminal p53 palindromic peptide that induces apoptosis of cells with aberrant p53 and uses thereof” (The Trustees of Columbia University in the City of New York, priority 2004, dated 2010).
Entries after “also recorded” stand apart in the source; their conditions may differ. Where a SMILES comes first, the peptide text is derived from it. The star is where a group is joined. Cbz = O=C(OCc1ccccc1)*; CH2F = FC*

What was measured:
[1] = system: engineered MDA-MB-468 human breast cancer cells; assay: TUNEL assay with flow cytometry on engineered cells; format: cell-based; conditions: 2 μM inhibitor added 6 hours after doxycycline, 24 hr total
Experimental: TUNEL assay on engineered MDA-MB-468 human breast cancer cells after 24 hours of exposure to 2 μg/ml Doxycycline.
(§1) Furthermore, using a specific inhibitor for caspase 8 eliminated the death induced by the C-terminal p53 palindromic tetrapeptide expression. The cleavage of the DNA repair signal protein poly-adenosyl-ribose polymerase (PARP), a key indicator of apoptosis, was also observed with the C-terminal p53 palindromic tetramer expression (FIGS. 5 and 6). Finally, one of the later events to occur as cells are undergoing apoptosis is the endonuclease cleavage of chromatin DNA at the DNA linker site between nucleosomes. These DNA fragments can be end-labeled with fluorescent-dUTP with the use of terminal deoxynucleotidyl transferase. This technique, called TUNEL, is extremely sensitive for the detection of apoptosis. We used a commercial TUNEL assay (Medical & Biological Labs, Nagoya, Japan) with flow cytometry to examine these engineered cells. By this assay, 80% of the cells were killed with induction of the 4 repeat by doxycycline treatment (FIG. 7). Furthermore, by using a specific inhibitor for caspase 8, IETD-FMK ([…], Nagoya, Japan), death induced by the C-terminal p53 palindromic peptide expression (FIG. 7) was eliminated. All of these findings support an apoptotic mechanism of cell death by this peptide.

[2] = system: MDA-MB-468 human breast cancer cells; assay: Propidium iodide staining / flow cytometry (sub-G1) of cells exposed to purified peptide; format: cell-based; conditions: 30 uM peptide, 6 hours
Experimental: Effects of the C-Terminal p53 Palindromic Tetrapeptide on Cells in Culture. MDA-MB-468 human breast cancer cells were grown in culture and exposed for 6 hours with no peptide (control) or with 30 μM of either the single p53 C-terminal peptide fused to the Ant carrier (p53-Ant) or with the His tagged p53 palindromic tetrapeptide fused to the Ant carrier (4 Repeat). The DNA within the cells was then stained with propidium iodide and cell particles were assayed by flow cytometry. The percent within each graph represents the percent cell particles with less than a diploid amount of DNA, indicative of apoptotic cells (sub G1 population).
In order to test the effect of the C-terminal p53 palindromic peptide cloned in E. Coli on cells in culture, the purified peptide was incubated at 30 μM with the human breast cancer cell line MDA-MB-468, and the effects compared to original monomer or single C-terminal peptide. Prior experiments had shown that exposure at this concentration was less than the IC50 for the original peptide. […] The DNA content was then quantified by flow cytometry in a FACSCalibur Cell Sorter (BD Bioscience, San Diego, Calif.). Cell cycle profiles were obtained, and the percentage of cells containing less than the diploid amount of DNA, indicative of cell undergoing cell death by apoptosis (sub-G1 peak), was quantified (FIG. 3).

[3] = system: p53 responsive proteins (Bax, Fas, caspase 8) and PARP in engineered MDA-MB-468 cells; assay: Immunoblot of p53 responsive proteins and PARP cleavage after doxycycline induction; format: cell-based, human; conditions: for Bax expression: doxycycline 2 μg/ml, 12, 36 and 48 hours; for PARP cleavage product: after 4-repeat induction with doxycycline
Experimental: Changes in the protein expression levels for the pro-apoptotic protein Bax, an active p53 responsive gene, induced by exposure to the tetracycline analog doxycycline (2 μg/ml) for 12, 36 and 48 hours. Engineered MDA-MB-468 cells were collected after the indicated exposure times and the total protein was extracted, an aliquot was run on a 12% acrylamide/SDS PAGE gel, and blotted onto nitrocellulose membranes. Antibodies specific for Bax, the 4-repeat (p53) and PARP were used to determine expression levels and α-tubulin was used as a loading control.
Changes in the protein expression levels for the p53 responsive genes encoding Fas and caspase 8, 24 hours after the engineered MDA-MB-468 cells were exposed to the indicated concentrations of doxycycline. A PARP cleavage product is also shown. α-tubulin was used as a loading control.
For the tetracycline-inducible peptide systems in MDA-MB-468 cells, cells were exposed to various concentrations of doxycycline for 24-48 hours and cell death measured by trypan blue exclusion (only dying cells are permeable to this dye) and propidium iodide staining (as above, in cells undergoing apoptosis DNA is cleaved so less PI can be bound resulting in accumulation of a sub-G1 peak of cells on flow cytometry). […] This implies a unique difference between the monomer and the 4 repeat.
as §1

[4] = system: normal cells including the pluripotent stem cells for granulocytes, erythrocytes, monocytes and macrophages; assay: Effect on normal cells; format: cell-based
MDA-MB-468 tumors = assay: Inducible expression in MDA-MB-468 tumors in athymic nude mice; format: in vivo; conditions: doxycycline 0.5 mg/ml in drinking water; described in present tense
Experimental: Four groups of ten animals each are used. Groups 1 and 2 are injected with one million MDA-MB-468 cells containing the inducibly expressible palindromic tetramer in 0.5 ml of basement membrane media. Groups 3 and 4 are injected with one million MDA-MB-468 cells containing the inducibly expressible GFP. The tumors are allowed to develop to a measurable state (approximately 2-3 weeks). Then groups 1 and 3 are given 0.5 mg/ml doxycycline in their drinking water, and groups 2 and 4 are given drinking water without doxycycline. Tumor sizes are measured daily. Animals are then euthanized and the tumors removed for analysis. Tumor sections are assayed for levels of apoptosis by DNA cleavage assay (TUNEL) and activation of caspases and cleavage of PARP.

MDA-MB-468 cells [5] = assay: Propidium iodide staining / flow cytometry (sub-G1) in tetracycline-inducible peptide-expressing cells; format: cell-based, human
Experimental: Effects of endogenous, regulated expression of the 4 repeat peptide on cell viability. MDA-MB-468 cells engineered to express the palindromic p53 4 repeat peptide under the control of a tetracycline responsive promoter were cultured without or with the addition of 2 μg/ml doxycycline, an analog of tetracycline, for 24, 48 or 72 hours. Cells were collected, fixed in ice cold 70% ethanol and the DNA was stained with propidium iodide. Cell cycle profiles were obtained by flow cytometry and the percent of sub-G1 cell particles, indicative of apoptosis, was quantified.
The MDA-MB-468 breast cancer cell line which expresses high levels of mutant p53 (Arg to His substitution at amino acid 273, one of the two most common p53 mutations in human cancers) was chosen as the model system. The tetracycline-inducible RevTet-On System (Clontech Laboratories, Palo Alto, Calif.) was used for these studies. […]
(§2) For the tetracycline-inducible peptide systems in MDA-MB-468 cells, cells were exposed to various concentrations of doxycycline for 24-48 hours and cell death measured by trypan blue exclusion (only dying cells are permeable to this dye) and propidium iodide staining (as above, in cells undergoing apoptosis DNA is cleaved so less PI can be bound resulting in accumulation of a sub-G1 peak of cells on flow cytometry). […]

MDA-MB-468 cells [6] = assay: Trypan blue exclusion in tetracycline-inducible peptide-expressing cells; format: cell-based, human; conditions: doxycycline induction 24-48 hours
Text: The MDA-MB-468 breast cancer cell line which expresses high levels of mutant p53 (Arg to His substitution at amino acid 273, one of the two most common p53 mutations in human cancers) was chosen as the model system. The tetracycline-inducible RevTet-On System (Clontech Laboratories, Palo Alto, Calif.) was used for these studies. Stably expressed reverse tetracycline-controlled transactivator (rtTA), under the control of a CMV promoter, was first established in the MDA-MB-468 cell line. Initially immunoblots with an antibody against the transactivator were used to identify high expression; subsequently a luciferase reporter system was used to identify highly inducible clones. This assay incorporated a luciferase reporter (Promega, Madison, Wis.) with the inducible pREvTRE vector of the RevTet-On system to measure the ability of tetracycline to induce luciferase activity. […]
as §2

9L rat glioma = assay: Survival of rats with intracerebral 9L glioma infused with adenovirus; format: in vivo, male fischer rats; conditions: concluding statement of rat glioma study
Experimental: Survival analysis of male rats initially injected with 5 μl of 10^5 9L cells over […] (Tumor implantation) through a catheter stereotactically inserted into the right caudate nucleus. These rats were subsequently infused with 7-8 μl volumes per day over 3 hours a day for a total of 7 days in three groups as follows: 2 rats received phosphate buffered saline (PBS control) solution, 3 rats received Ad/vector control virus (Empty Virus Control), and 10 rats received Ad/4-rep-p53p adenovirus containing the tetrapeptide C-terminal p53 peptide.) The average survival time for the groups were: 20 days for the PBS control group, 27 days for the adenovirus vector control group (23.25 days for the combined control groups) and 37.25 days for the Ad/4-rep-p53p Adenovirus treated group. Thus, the treatment group infected with the adenovirus containing the C-terminal palindromic tetrapeptide experienced an 86% increase in survival compared to the PBS controls and a 60% increase in survival compared to the combined controls. […]
For animal studies, 15 male fischer rats (age 12-14 weeks, 250 g) were anesthetized, and a 20 gauge plastic guide cannula was cemented into their skulls. […] The rats were monitored for an additional 44 days to determine differences in survival among groups.

| Compound | effect of caspase 8 inhibitor on death/TUNEL shift induced by palindromic peptide expression [1] | cell death (PI staining, sub-G1 population) [2] [%] | Bax expression [3] | effect on normal cells [4] | apoptosis of cancer cells in animals (MDA-MB-468 tumors) | cell death (sub-G1 peak, propidium iodide staining) (MDA-MB-468 cells [5]; after doxycycline induction, stably expressing cell lines) [%] | apoptosis (propidium iodide staining and flow cytometry) (MDA-MB-468 cells [5]; doxycycline induction, FIG. 4) | decrease in viability (trypan blue exclusion) (MDA-MB-468 cells [6]) | Fas expression ([3]; 24 hours doxycycline) | caspase 8 expression ([3]; 24 hours doxycycline) | PARP cleavage product [3] | PARP cleavage product ([3]; listed as C-terminal p53 palindromic tetramer) | apoptosis of cancer cells in animals (9L rat glioma) |
| --- | --- | --- | --- | --- | --- | --- | --- | --- | --- | --- | --- | --- | --- |
| CC[C@H](C)[C@H](NC(=O)OCc1ccccc1)C(=O)N[C@@H](CCC(=O)OC)C(=O)N[C@H](C(=O)N[C@@H](CC(=O)OC)C(=O)CF)[C@@H](C)O [IETD-FMK] (Cbz-IE(OMe)TD(OMe)-CH2F) | no shift occurs; also recorded: eliminated |  |  |  |  |  |  |  |  |  |  |  |  |
| CSCC[C@H](NC(=O)[C@H](CCCCN)NC(=O)[C@H](Cc1c[nH]c2ccccc12)NC(=O)[C@H](CCCCN)NC(=O)[C@H](CCCCN)NC(=O)[C@H](CCCCN)NC(=O)[C@H](CCCCN)NC(=O)[C@H](Cc1c[nH]cn1)NC(=O)[C@H](CCCNC(=N)N)NC(=O)[C@H](CO)NC(=O)[C@@H](NC(=O)[C@H](CO)NC(=O)[C@H](CCC(N)=O)NC(=O)CNC(=O)[C@H](CCCCN)NC(=O)[C@H](CCCCN)NC(=O)[C@H](CO)NC(=O)[C@H](CCCCN)NC(=O)[C@H](CC(C)C)NC(=O)[C@H](Cc1c[nH]cn1)NC(=O)[C@H](CO)NC(=O)[C@H](CO)NC(=O)[C@H](Cc1c[nH]cn1)NC(=O)[C@H](C)NC(=O)[C@H](CCCNC(=N)N)NC(=O)[C@H](CO)NC(=O)CN)[C@@H](C)O)C(=O)N[C@@H](CCCNC(=N)N)C(=O)N[C@@H](CCCNC(=N)N)C(=O)N[C@@H](CC(N)=O)C(=O)N[C@@H](CCC(N)=O)C(=O)N[C@@H](Cc1ccccc1)C(=O)N[C@@H](Cc1c[nH]c2ccccc12)C(=O)N[C@H](C(=O)N[C@@H](CCCCN)C(=O)N[C@H](C(=O)N[C@@H](CCC(N)=O)C(=O)N[C@@H](CCCNC(=N)N)C(=O)NCC(=O)O)C(C)C)C(C)C [p53 C-terminal peptide (single repeat), reference compound] (H-GSRAHSSHLKSKKGQSTSRHKKKKWKMRRNQFWVKVQRG-OH; N-terminus and C-terminus assumed) |  | 23 | did not |  |  |  |  |  |  |  |  |  |  |
| p53 palindromic tetramer: C-terminal p53 palindromic tetrapeptide (four aa 353-393 segments, glycine-linked) expressed in cells from inducible or viral construct |  |  | increase in the expression | no to minimal effect | found to induce apoptosis | 43 | greater than 40% | greater than 80% | increase in the expression | increase in the expression | observed even 12 hours after | observed | found to induce apoptosis |
